Measured values as given in patent publication US4087489A, “Insecticidal N-polychloroallylamido-thiophosphoric esters” (priority 1975, dated 1978).
Where two headings read alike, the source gives them in different places.

Tests used:
Musca domestica [1] = details: 0.5 γ/insect; literature compounds (Agricultural and Food Chemistry 11, 1963, p.237); cited from earlier work
Musca domestica [2] = assay: Activity test on Musca domestica, topical application; type: in vivo
Procedure: Activity of "Musca domestica" by O-methyl-O-(2,4,5-trichlorophenyl)-phosphoroamidothioates with relationship to the weight of the alkyl group bound to the nitrogen atom (iso-C3 H7 = 1) in comparison with that of the compound of Example 1 of this invention (in a quantity of 0.5 γ/insect):
Adult 4-day flies were treated by topical application by means of a micro-syringe of 1 cubic millimeters (mm^3) of an acetone solution at 0.5 γ/ .mm^3 according to Example 1. […] (The death-rate of the flies treated with 1 .mm^3 of acetone under the same conditions was equal to 0).

Macrosiphum Euphorbiae = assay: Activity test on Macrosiphum euphorbiae (aphides) on potato plants; type: in vivo
Source text: Small potato plants, grown in pots, were infested with adult aphide females and, after a few hours, subjected to besprinkling with an aqueous dispersion of the product of Example 1, at a concentration of 0.1%. The percentual death-rate turned out to be 100% (on small untreated plants = 0).
(§1) In order to show how the compounds of the invention have different activities depending on the species at varying concentrations, the death-rate percentages on various infesting kinds of compounds of the invention at varying concentrations of active principle have been recorded in Table II.

Culex pipiens = assay: Activity test on Culex pipiens larvae in aqueous dispersion; type: in vivo
Source text: Into glasses containing an aqueous dispersion of the product of Example 1 and at a concentration of 0.005 parts per million, p.p.m.: there were introduced larvae of third and fourth age.
as §1

[3] = system: Leptinotarsa decemlineata; assay: Activity test on Leptinotarsa decemlineata larvae on potato plants; type: in vivo; details: for mortality at 1 %: read-out: % mort. Leptinot. Decemlin.
Source text: Potato plants grown in pots were infested with 4-day old larvae and subjected to besprinkling with an aqueous 0.1% dispersion of the product of Example 1.
as §1

[4] = Acute oral toxicity (DL 50) in the albino mouse; details: in vivo
Tetran. Urt. adults = assay: Activity on Tetran. Urt. adults (Table II); type: in vivo
Source text: as §1

Spodopt. Littoralis = assay: Activity on Spodopt. Littoralis (Table II); type: in vivo; details: 1 % a.p.
Source text: as §1

Tetran Urt. eggs = assay: Activity on Tetran Urt. eggs (Table II); type: in vivo
Source text: as §1

Pieris Brassicae = assay: Activity on Pieris Brassicae (Table II); type: in vivo; details: read-out: % mort. Pieris Brassicae
Source text: as §1

albino mouse = details: oral, comparison value; cited from earlier work

Question: For `COP(=S)(NC(C)C)Oc1ccc(Cl)cc1Cl` (stereo not drawn), which “Percentual death-rate on Musca domestica” value (Musca domestica [1]) is on record?
Answer: 100%

Question: For `COP(=S)(NC(C)C)Oc1cc(Cl)c(Cl)cc1Cl` (stereo not drawn), which “Percentual death-rate on Musca domestica” value (Musca domestica [1]) is on record?
Answer: 100%

Question: With `COP(=S)(NCC(C)C)Oc1cc(Cl)c(Cl)cc1Cl` (stereo not drawn) as the molecule, how does the “Percentual death-rate on Musca domestica” value (Musca domestica [1]) read?
Answer: 92%

Question: For `COP(=S)(NC(C)(C)C)Oc1cc(Cl)c(Cl)cc1Cl` (stereo not drawn), which “Percentual death-rate on Musca domestica” value (Musca domestica [1]) is on record?
Answer: 13%

Question: With `CCOP(=S)(NCC=C(Cl)Cl)Oc1cc(Cl)c(Cl)cc1Cl` (stereo not drawn) [Example 1, O-ethyl-O-(2,4,5-trichlorophenyl)-N-(3,3-dichloro-allyl)amido-thiophosphate] as the molecule, how does the “Percentual death-rate on Musca domestica” value (Musca domestica [2]; 0.5 γ/insect, Table I) read?
Answer: 100%

Question: What about the death-rate (Musca domestica [2]; adult 4-day flies, topical 1 mm^3 acetone solution at 0.5 γ/mm^3, after 24 hours) of the same molecule?
Answer: 100%

Question: And the mortality at 0.1 % (Macrosiphum Euphorbiae; read-out: percentual death-rate)?
Answer: 100%

Question: What about the mortality at 0.005 ppm (Culex pipiens; larvae of third and fourth age, 0.005 p.p.m., after 24 hours, read-out: death-rate) of the same molecule?
Answer: 100%

Question: And the mortality at 0.1 % ([3]; 4-day old larvae on potato plants, aqueous 0.1% dispersion, after 48 hrs, read-out: percentual death-rate of the larvae)?
Answer: 100%

Question: And the LD50 [4]?
Answer: > 100 mg/kg

Question: With `CSc1ccc(OP(=S)(NCC=C(Cl)Cl)OC(C)C)cc1C` (stereo not drawn) [Example M7468] as the molecule, how does the mortality at 0.02 µg/mL (Culex pipiens; 0,02 ppm a.p., read-out: % mort. Oulex Pipens) read?
Answer: 30%

Question: And the mortality at 1 % ([3]; 1 % a.p.)?
Answer: 30%

Question: And the “% mort. Tetran. Urt. adults” value (Tetran. Urt. adults; 0,1 % a.p.)?
Answer: 0%

Question: And the “% mort. Spodopt. Littoralis” value (Spodopt. Littoralis)?
Answer: 0%

Question: With `COP(=S)(Oc1ccc(SC)c(C)c1)N(C)CC=C(Cl)Cl` (stereo not drawn) [Example M7469] as the molecule, how does the mortality at 1 % [3] read?
Answer: 20%

Question: What about the “% mort. Tetran Urt. eggs” value (Tetran Urt. eggs; 0,1 % a.p.) of the same molecule?
Answer: 24%

Question: What about the “% mort. Tetran Urt. eggs” value (Tetran Urt. eggs; 1 % a.p.) of the same molecule?
Answer: 100%

Question: What about the “% mort. Spodopt. Littoralis” value (Spodopt. Littoralis) of the same molecule?
Answer: 15%

Question: With `CCOP(=S)(NCC=C(Cl)Cl)Oc1ccc([N+](=O)[O-])c(C)c1` (stereo not drawn) [M 6986] as the molecule, how does the mortality at 1 % (Macrosiphum Euphorbiae; 1 % a.p., read-out: % mort. Macrosiphum Euphorbiae) read?
Answer: 100%

Question: What about the mortality at 0.2 µg/mL (Culex pipiens; 0,2 ppm a.p., read-out: % mort. Oulex Pipens) of the same molecule?
Answer: 100%

Question: And the mortality at 2 µg/mL (Culex pipiens; read-out: % mort. Oulex Pipens)?
Answer: 100%

Question: And the mortality at 1 % ([3]; 1 % a.p.)?
Answer: 40%

Question: What about the mortality at 1 % (Pieris Brassicae; 1 % a.p.) of the same molecule?
Answer: 100%

Question: And the “% mort. Tetran. Urt. adults” value (Tetran. Urt. adults; 1 % a.p.)?
Answer: 26%

Question: And the “% mort. Tetran Urt. eggs” value (Tetran Urt. eggs; 1 % a.p.)?
Answer: 12%

Question: And the “% mort. Spodopt. Littoralis” value (Spodopt. Littoralis)?
Answer: 5%

Question: For `CC(C)OP(=S)(NCC=C(Cl)Cl)Oc1cc(Cl)c(Cl)cc1Cl` (stereo not drawn) [M 7147], which mortality at 1 % [3] is on record?
Answer: 75%

Question: And the mortality at 1 % (Pieris Brassicae)?
Answer: 20%

Question: What about the “% mort. Tetran. Urt. adults” value (Tetran. Urt. adults; 1 % a.p.) of the same molecule?
Answer: 47%

Question: For `COP(=S)(NCC=C(Cl)Cl)Oc1cc(Cl)c(Cl)cc1Cl` (stereo not drawn) [M 7160], which mortality at 1 % ([3]; 1 % a.p.) is on record?
Answer: 40%

Question: What about the “% mort. Spodopt. Littoralis” value (Spodopt. Littoralis) of the same molecule?
Answer: 55%

Question: With `COP(=S)(NCC=C(Cl)Cl)Oc1ccc([N+](=O)[O-])c(C)c1` (stereo not drawn) [M 7415] as the molecule, how does the mortality at 1 % ([3]; 1 % a.p.) read?
Answer: 70%

Question: Which “% mort. Spodopt. Littoralis” value (Spodopt. Littoralis) does the source give for `COP(=S)(NCC=C(Cl)Cl)Oc1ccc(SC)c(C)c1` (stereo not drawn) [M 7466] here?
Answer: 0%

Question: What does the source list for `CCOP(=S)(NCC=C(Cl)Cl)Oc1ccc(SC)c(C)c1` (stereo not drawn) [M 7467]?
Answer: mortality at 1 % ([3]; 1 % a.p.): 55%; % mort. Spodopt. Littoralis (Spodopt. Littoralis): 30%

Question: Which “% mort. Tetran. Urt. adults” value (Tetran. Urt. adults; 0,01 % a.p.) does the source give for `CCOP(=S)(Oc1ccc(SC)c(C)c1)N(C)CC=C(Cl)Cl` (stereo not drawn) [M 7470] here?
Answer: 4%

Question: And the “% mort. Spodopt. Littoralis” value (Spodopt. Littoralis)?
Answer: 25%

Question: For `CSc1ccc(OP(=S)(OC(C)C)N(C)CC=C(Cl)Cl)cc1C` (stereo not drawn) [M 7471], which mortality at 1 % ([3]; 1 % a.p.) is on record?
Answer: 65%

Question: And the mortality at 0.1 % (Pieris Brassicae; 0,1 % a.p.)?
Answer: 0%

Question: What about the “% mort. Tetran. Urt. adults” value (Tetran. Urt. adults; 1 % a.p.) of the same molecule?
Answer: 57%

Question: And the “% mort. Spodopt. Littoralis” value (Spodopt. Littoralis)?
Answer: 0%

Question: Which “D.L. 50” value (albino mouse) does the source give for `CCOP(=S)(OCC)Oc1ccc([N+](=O)[O-])cc1` [Parathion, O,O-diethyl-O-p-nitrophenyl-phosphorthioate] here?
Answer: 14 mg/kg
